Assay results taken from US6300364A, “Medicinal compositions with cholesterol-lowering effect” (priority 1997, dated 2001).
Where two headings read alike, the source gives them in different places.

Experiments:
PPARα [1] = target: T1, PPARα (Mus musculus, UniProt P23204); assay: GAL4-PPARα reporter (luciferase) activation assay in HepG2 cells; assay type: cell-based; conditions: read-out: Relative activity (control = 1) PPARα
T1 construct: mPPARα (Gly^165 -Tyr^467); expressed in transfected cells; host or cells: HepG2
T1 sequence (P23204 165-468 limits assumed): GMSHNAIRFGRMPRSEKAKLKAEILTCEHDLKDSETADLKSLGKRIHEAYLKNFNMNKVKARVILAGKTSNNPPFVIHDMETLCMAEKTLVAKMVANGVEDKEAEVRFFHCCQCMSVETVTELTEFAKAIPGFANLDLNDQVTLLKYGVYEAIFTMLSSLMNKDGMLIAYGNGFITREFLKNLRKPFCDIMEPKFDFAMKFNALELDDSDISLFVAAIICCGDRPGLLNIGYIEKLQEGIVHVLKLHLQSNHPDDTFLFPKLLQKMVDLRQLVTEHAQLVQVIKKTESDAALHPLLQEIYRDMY

PPARγ = target: T2, PPARγ (Mus musculus, UniProt P37238); assay: GAL4-PPARγ reporter (luciferase) activation assay in HepG2 cells; conditions: for fold induction at 100 µM: HepG2, 48 h, read-out: Relative activity (control = 1) PPARγ; for PPARγ-activating effect (in words): conclusion from Table 1
T2 sequence (P37238 202-505): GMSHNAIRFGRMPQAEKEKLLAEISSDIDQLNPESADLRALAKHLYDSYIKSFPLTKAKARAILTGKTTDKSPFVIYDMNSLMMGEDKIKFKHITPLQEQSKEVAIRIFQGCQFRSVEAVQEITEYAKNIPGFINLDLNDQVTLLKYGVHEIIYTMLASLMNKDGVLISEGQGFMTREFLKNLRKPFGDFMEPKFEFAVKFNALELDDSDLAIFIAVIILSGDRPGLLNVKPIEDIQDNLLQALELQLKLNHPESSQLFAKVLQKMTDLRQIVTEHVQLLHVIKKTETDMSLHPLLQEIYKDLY
Excerpt: To identify a compound having a PPARδ and PPARγ ligand effect, fused gene expression vectors of the DNA-binding domain (GAL4-DNA bindgn domain, GAL4-DBD) of a yeast transcription activated protein and the PPAR ligand binding domains (LBDs) were constructed. Three activation vectors thus constructed were named GAL-PPARα, GAL-PPARδ and GAL-PPARγ respectively.
i) Ligand binding domains (PPAR-LBDs) of mouse peroxisome-proliferator-activated receptors (mPPARα, mPPARδ and mPPARγ) were each amplified by PCR (polymerase chain reaction). As a template employed in the amplification, total RNA was prepared from a fat tissue around mouse epididymis with the use of a total RNA extracting reagent Isogen (manufactured by Nippon Gene) in accordance with the attached manufacturer's instruction. […] PCR was performed by using GeneAmp PCR System Model 9600.
ii) Into one side of each primer thus synthesized, a recognition sequence of a restriction enzyme SmaI or BamHI had been preliminarily inserted so that the primer could be cleaved with the restriction enzyme. After the amplification, the PCR fragment was ligated with pGBT9 DNA-Binding Domain Vector (5.5 kb, having the GAL4-DBD domain and an ampicillin resistance gene Amp^R sequence, manufactured by Clontech) and the vector thus formed was named pGBT9-PPAR-LBD.
iii) A fused gene domain (GAL4-DBD+PPAR-LBD) wherein GAL4-DBD contained in pGBT9-PPAR-LBD was legated to PPARLBD was excised by using HindIII/SalI and transferred into the multiple cloning site (MCS) of an expression vector pZeoSV (3.5 kb, having zeocin resistance gene Zeo^R sequence, manufactured by Clontech) by using HindIII/Xhol. The thus obtained chimeric expression vectors of GAL4-DBD ad PPAR-LBD were named respectively GAL-PPARα, GAL-PPARδ and GAL-PPARγ.
i) DNA sequences were synthesized by using a DNA synthesizer (Beckman DNA Synthesizer oligo1000M, manufactured by Beckman) by repeating the GAL4-DBD binding sequence (GAL4 responsive element, RE or UASG) once (RE×1) or thrice (RE×3). Then appropriate restriction enzyme cites were introduced into both ends and these sequences were ligated together to give a 4-repetition sequence fragment (RE×4). Further, an 8-repetition sequence fragment (RE×8) was formed by using the same.
ii) A DNA sequence wherein TATA box was ligated to the above GAL4 responsive sequence (RE×8) was formed by PCR and then inserted into the 5'-side upstream of the luciferase gene sequence (RE-LUC) in a vector for luciferae assay system (Pica Gene Vector-2, (PGV-B2), Toyo Ink Mfg.). […] RE-LUC containing RE×8 was transferred into cells together with GAL-PPARγ. Then CS-045 (troglitazone), i.e., the ligand of PPARγ was added.
By using the activation vectors and reporter vectors constructed in the above (1) and (2), the PPAR activation effect of a compound was measured by a method involving the following three steps: i) Cotransfection of construction into a host; ii) treatment of cells by adding the compound; and iii) assay of the reporter gene expression level.
HepG2 cells (American Type Culture Collection, Maryland, USA) was inoculated into a collagen type IV treated 96-well plate (manufactured by Iwaki) at a cell density of 1×10^4 /well and incubated for 2 days in the presence of Dulbecco's modified Eagle medium containing 10% of fetal calf serum (FCS) (200 μl/well, FCS-DMEM (GIBCO BRL)). Next, the cells were washed with 100 μl/well of a cell incubation medium (OPTI-MEM I Reduced Serum Medium, manufactured by GIBCO BRL) maintained at 37° C.

PPARδ [2] = target: T3, PPARδ (Mus musculus, UniProt P35396); assay: GAL4-PPARδ reporter (luciferase) activation assay in HepG2 cells; assay type: cell-based; conditions: for fold induction at 100 µM: read-out: Relative activity (control = 1) PPARδ; for PPARδ-activating effect (in words): conclusion from Table 1
T3 construct: mPPARδ (Met^137 -Tyr^439); expressed in transfected cells; host or cells: HepG2
T3 sequence (P35396 137-440 limits assumed): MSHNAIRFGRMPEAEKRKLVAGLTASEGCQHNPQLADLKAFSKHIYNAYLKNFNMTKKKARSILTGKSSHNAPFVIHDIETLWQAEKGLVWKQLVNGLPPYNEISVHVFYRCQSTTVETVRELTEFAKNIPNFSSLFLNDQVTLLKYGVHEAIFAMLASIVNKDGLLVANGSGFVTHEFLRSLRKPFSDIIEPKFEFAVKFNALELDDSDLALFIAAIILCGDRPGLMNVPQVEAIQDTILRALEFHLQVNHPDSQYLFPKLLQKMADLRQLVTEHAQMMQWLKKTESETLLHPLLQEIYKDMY

PPARδ [3] = conditions: literature report; cited from earlier work
PPARα [4] = conditions: literature report; cited from earlier work
[5] = Test for evaluating cholesterol-lowering effect by using rhesus monkey; assay type: in vivo; conditions: for Decrease in LDL-C (LDL-cholesterol level) / Decrease in TC (serum total cholesterol level): male rhesus monkeys, 30 mg/kg/day in feed, 2 weeks, compared with data before the administration; for Effect of lowering serum total cholesterol level, in particular LDL-cholesterol level (in words): rhesus monkeys, conclusion from Table 2
Procedure: A test for evaluating cholesterol-lowering effect was performed by using rhesus monkeys in accordance with a method described in Br. J. Pharmacol., 118, p.174-178, 1996.
i) Male rhesus monkeys weighing about 4.5 to 5 kg (Purchased from Hamri) were fed by giving twice a day 50 g/day of a solid feed, which had been prepared by adding 50 ml of water and vitamin C (5 mg/kg/day, manufactured by Sigma) to 50 g of Purina powdery feed (Code #5408, manufactured by Oriental Yeast) and solidifying the mixture, and about 100 g of banana.
ii) The monkeys having been accustomed to the control feed were divided into a control group having 4 animals and test groups each having 3 animals. The animals of the […] were fed with the control feed. On the other hand, the animals of one test group were fed with a composition feed containing 30 mg/kg/day of YM-16683, while those of the other test group were fed with a composition feed containing 30 mg/kg/day of the compound of Production Example 1, each twice a day. To avoid unfinished feeding, banana was given to the animals after taking 50 g of each feed.
iii) The groups were fed with respective feeds for 2 weeks. About 16 hours before the day before the final administration, the animals were fasted and the blood samples were collected from thigh. After measuring body weight, blood collection was performed twice, i.e., before and after the administration of the test compound. Each blood sample thus collected was heparinized and serum was separated therefrom. Next, the total cholesterol level (TC) and LDL-cholesterol level (LDL-C) were measured by the enzymatic method with the use of an automatic analyzer (Model 736-10, Hitachi) (Table 2).
Decrease was calculated by comparing the data before the administration.

[6] = cited from earlier work; for Decrease in serum cholesterol level: normal subjects
[7] = cited from earlier work
[8] = test compound 10^-4 M, HepG2 cells, 48 hours, luciferase activity corrected by β-galactosidase, DMSO control = 1.0

Question: Which fold induction at 100 µM (PPARα [1]; HepG2, 48 h) does the source give for `CCOC(=O)C(C)(C)Oc1ccc(Cl)cc1` [Clofibrate] here?
Answer: 2.2

Question: What about the fold induction at 100 µM (PPARγ) of the same compound?
Answer: 0.9

Question: And the fold induction at 100 µM (PPARδ [2]; HepG2, 48 h)?
Answer: 1.3

Question: What does the source list for `CCCCC[C@H](O)/C=C/[C@@H]1[C@H]2C/C(=C/CCCC(=O)O)O[C@H]2C[C@H]1O` [PGI2, prostacyclin]?
Answer: PPARδ activation / ligand activity (in words) (PPARδ [3]): activates neither PPARα nor PPARδ; PPARα activation / ligand activity (in words) (PPARα [4]): activates neither PPARα nor PPARδ

Question: Which fold induction at 100 µM (PPARα [1]; HepG2, 48 h) does the source give for `CCc1ccc(CCOc2ccc(CC3SC(=O)NC3=O)cc2)nc1` (centres unmarked) [Pioglitazone] here?
Answer: 1.5

Question: And the fold induction at 100 µM (PPARδ [2]; HepG2, 48 h)?
Answer: 1.4

Question: For `CCCc1c(OCCCOc2ccc(CC(=O)O)cc2)ccc(C(C)=O)c1O` [Production Example 1, p-[3-(4-acetyl-3-hydroxy-2-propylphenoxy)propoxy]phenylacetic acid], which fold induction at 100 µM (PPARα [1]; [8]) is on record?
Answer: 0.6

Question: What about the fold induction at 100 µM (PPARγ) of the same compound?
Answer: 10.3

Question: And the “PPARγ-activating effect (in words)” value (PPARγ)?
Answer: effect of activating PPARδ and PPARγ

Question: What about the “PPARδ-activating effect (in words)” value (PPARδ [2]) of the same compound?
Answer: effect of activating PPARδ and PPARγ

Question: What about the fold induction at 100 µM (PPARδ [2]; [8]) of the same compound?
Answer: 83.5

Question: What about the “Decrease in LDL-C (LDL-cholesterol level)” value [5] of the same compound?
Answer: 34%

Question: And the “Decrease in TC (serum total cholesterol level)” value [5]?
Answer: 29%

Question: What about the “Effect of lowering serum total cholesterol level, in particular LDL-cholesterol level (in words)” value [5] of the same compound?
Answer: excellent effect of lowering serum total cholesterol level, in particular, LDL-cholesterol level

Question: With `Cc1cccc(Nc2cc(Cl)nc(SCC(=O)O)n2)c1C` [Wy 14,643, prinixic acid] as the compound, how does the “PPARα activation / ligand activity (in words)” value (PPARα [4]) read?
Answer: ligand specific to PPARα

Question: What about the fold induction at 100 µM (PPARγ) of the same compound?
Answer: 1.8

Question: Which results are given for `CCCc1c(OCCCSc2nnc(SCC(=O)O)s2)ccc(C(C)=O)c1O` [YM-16638]?
Answer: fold induction at 100 µM (PPARα [1]; [8]): 1; fold induction at 100 µM (PPARγ): 2.5; PPARγ-activating effect (in words) (PPARγ): effect of activating PPARδ and PPARγ; PPARδ-activating effect (in words) (PPARδ [2]): effect of activating PPARδ and PPARγ; fold induction at 100 µM (PPARδ [2]; [8]): 46.2; Effect of lowering serum triglyceride level (in words) ([6]; humans): only a weak effect; Decrease in serum cholesterol level ([6]; administration dose 60 mg): about 26%; Decrease in serum cholesterol level ([6]; administration dose 120 mg): ~41%; Decrease in LDL-C (LDL-cholesterol level) [5]: 14%; Decrease in TC (serum total cholesterol level) [5]: 33%; Effect of lowering serum total cholesterol level, in particular LDL-cholesterol level (in words) [5]: excellent effect of lowering serum total cholesterol level, in particular, LDL-cholesterol level

Question: What does the source list for `CCCCC[C@H](O)/C=C/[C@@H]1[C@H]2C/C(=C/CCCC(=O)O)C[C@H]2C[C@H]1O` [cPGI2, carbaprostacyclin]?
Answer: PPARδ activation / ligand activity (in words) (PPARδ [3]): has activities of both of PPARα and PPARδ ligands; fold induction at 100 µM (PPARα [1]; HepG2, 48 h): 15.2; PPARα activation / ligand activity (in words) (PPARα [4]): has activities of both of PPARα and PPARδ ligands; fold induction at 100 µM (PPARγ): 1.6; fold induction at 100 µM (PPARδ [2]; HepG2, 48 h): 34

Question: For `CCC(C)(C)C(=O)O[C@H]1C[C@@H](C)C=C2C=C[C@H](C)[C@H](CC[C@@H]3C[C@@H](O)CC(=O)O3)[C@H]21` [simvastatin], which “Decrease in serum cholesterol level” value ([7]; patient with hyperlipemia, total serum cholesterol level of 220 mg/dl or above) is on record?
Answer: about 20%

Question: What about the “Decrease in serum cholesterol level” value ([7]; phase I clinical test, normal subjects, about 1 week after the initiation of the administration) of the same compound?
Answer: about 20%
